In patent US6207393A, “Inhibition of intracellular signal transduction by 14-3-3-binding peptides” (Washington University, priority 1999, dated 2001):
pIC50, pKd: −log10 of the molar value. Where “and” joins values, the source holds several entries; their conditions need not be identical. Equal values may be shown once. Where a SMILES comes first, the peptide text is derived from it. [ ]: non-standard residue; d: D form. pS = N[C@@H](COP(=O)(O)O)C(=O)O

Tests used:
14-3-3 beta [1] = target: T1, 14-3-3 beta (Homo sapiens, UniProt P31946); experiment: Surface plasmon resonance kinetics, 14-3-3 beta binding to phosphorylated Raf-259 peptide; details: isoform beta
T1 construct: made in house; host or cells: E. coli DH5α (vector pGEX-KT)
T1 sequence (P31946 1-246): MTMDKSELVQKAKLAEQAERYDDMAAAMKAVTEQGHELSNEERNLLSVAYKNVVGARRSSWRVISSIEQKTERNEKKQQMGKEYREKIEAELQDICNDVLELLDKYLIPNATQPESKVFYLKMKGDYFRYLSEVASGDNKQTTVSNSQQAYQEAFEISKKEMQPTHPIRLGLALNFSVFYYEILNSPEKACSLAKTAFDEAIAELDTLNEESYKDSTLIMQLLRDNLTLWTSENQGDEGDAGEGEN
Experimental: (§1) Because the surface plasmon resonance detects binding in real time, this method can be used to directly determine the rates of association (kon) and dissociation (koff). For these kinetic measurements, GST/14-3-3 fusion proteins were injected over a range of concentrations between 200 nM and 5 μM. The "on" rate, kon, was determined by calculating dR/dt for the initial linear portion of association using the Biaevaluation software (Pharmacia). Because ligand rebinding to the sensor chip can affect the "off" rate (koff, Panayotou et al. Mol Cell Biol 13:3567-76, 1993 which is incorporated by reference), we measured the "off" rate in the presence of 50 μM free ligand by using the coinject function of the Biacore. The "off" rate measured in the absence of 50 μM free ligand was approximately 10-fold lower.
(§2) There are seven known isoforms of 14-3-3 which form homo- and heterodimers in vivo. If different isoforms of 14-3-3 could bind to proteins with distinct specificities, heterodimeric forms of 14-3-3 might function as modular linker proteins, bringing together different proteins into a single complex. We were, therefore, interested in determining whether different 14-3-3 isoforms recognize phosphoserine in a sequence specific fashion. This hypothesis was tested by expressing and purifying three other 14-3-3 isoforms, eta, beta and tau, and measuring their affinity towards the panel of phosphorylated peptides generated above. Using the Surface Plasmon Resonance method, the "on" and "off" rates for 14-3-3 binding to the phosphorylated Raf-259 peptide were calculated (Table 6).

14-3-3 beta [2] = target: T1, 14-3-3 beta; experiment: SPR competitive inhibition of 14-3-3 beta binding to phosphorylated Raf-259 peptide; details: isoform beta
Experimental: (§3) The ability of each peptide to inhibit binding of 14-3-3 zeta to the phosphorylated peptide was then tested in a range of concentrations between 1 and 50 μM. 14-3-3 zeta was prepared according to the methods in Example 1 and binding affinities and specificities were determined using the peptides in Table 2. The 14-3-3 zeta fusion proteins (0.5-1.0 μM) were pre-incubated with a given peptide at concentrations between 1 μM and 50 μM. 14-3-3 zeta was then infused across a sensor chip surface which had been previously coupled with the phosphorylated Raf-259 peptide (SEQ ID NO: 4). IC50 values were determined by plotting the concentration of competitor peptide required to achieve a 50% reduction in equilibrium binding.
as §2
(§4) Competitive inhibition with the mutated phosphorylated Raf-1 peptides was used to determine whether their specificities were similar (Table 7). In each case, the calculated IC50 s were very similar to those calculated for 14-3-3 zeta.

14-3-3 zeta [3] = target: T2, 14-3-3 zeta (Homo sapiens, UniProt P63104); experiment: SPR competitive inhibition of 14-3-3 zeta binding to chip-coupled phosphorylated Raf-259 peptide; details: 14-3-3 zeta 0.5-1.0 μM; competitor 1-50 μM; relative affinity only
T2 construct: made in house; host or cells: E. coli DH5α (vector pGEX-KT)
T2 sequence (P63104 1-245): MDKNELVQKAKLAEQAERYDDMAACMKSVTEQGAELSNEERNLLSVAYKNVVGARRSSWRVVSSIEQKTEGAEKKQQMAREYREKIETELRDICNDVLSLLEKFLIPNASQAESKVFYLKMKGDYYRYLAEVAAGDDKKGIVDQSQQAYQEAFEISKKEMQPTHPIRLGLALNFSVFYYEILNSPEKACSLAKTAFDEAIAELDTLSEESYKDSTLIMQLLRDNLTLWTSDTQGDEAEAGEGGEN
Experimental: as §3

14-3-3 zeta [4] = target: T2, 14-3-3 zeta; experiment: Surface plasmon resonance, GST-14-3-3 zeta binding to immobilized biotinylated Raf-259 peptide (binding and kinetics); details: isoform zeta
Experimental: These experiments were performed using the BIAcore 2000 (Pharmacia). The basic principles and detection methods have been reviewed previously (Jonsson et al. Biotech. 11:620-7, 1991; Jonsson et al. Ann Bio Clin 51:19-26, 1993 which are incorporated by reference). In brief, 5 μl of the biotinylated raf-259 peptide (1 nM) was immobilized onto streptavidin-coated (SA5, Pharmacia) sensor chips at a flow rate of 5 μl/min at 25° C. […] To phosphorylate the immobilized peptides, 5 U of PKA in a buffer containing 200 μM ATP in 50 μl was infused over the chip at a flow rate of 2 μl/min at 30° C.
as §1
The biotinylated, […] Raf-1 peptide (SEQ ID NO: 4) was coupled to avidin coated chip surface to study the kinetics of its binding to 14-3-3 zeta. The association rate was determined to be approximately 2.3×10^4 M^-1×s^-1 and the dissociation rate was determined to be approximately 2.8×10^-3 s^-1. To minimize the effects of protein rebinding to the surface of the sensor chip, the dissociation rate was measured in the presence of 50 μM free phosphorylated Raf-1 peptide.

14-3-3 tau = target: T3, 14-3-3 tau (Homo sapiens, UniProt P27348); experiment: Surface plasmon resonance kinetics, 14-3-3 tau binding to phosphorylated Raf-259 peptide; details: isoform tau
T3 construct: made in house; host or cells: E. coli DH5α (vector pGEX-KT)
T3 sequence (P27348 1-245): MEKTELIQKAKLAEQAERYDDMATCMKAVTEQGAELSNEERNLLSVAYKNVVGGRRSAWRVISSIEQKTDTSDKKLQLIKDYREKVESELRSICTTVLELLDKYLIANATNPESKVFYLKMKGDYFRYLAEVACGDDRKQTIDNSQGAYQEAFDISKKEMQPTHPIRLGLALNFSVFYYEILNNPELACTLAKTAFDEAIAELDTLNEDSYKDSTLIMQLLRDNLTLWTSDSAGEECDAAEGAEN
Experimental: as §1, §2

14-3-3 eta = target: T4, 14-3-3 eta (Homo sapiens, UniProt Q04917); experiment: SPR competitive inhibition of 14-3-3 eta binding to phosphorylated Raf-259 peptide; details: isoform eta
T4 construct: made in house; host or cells: E. coli DH5α (vector pGEX-KT)
T4 sequence (Q04917 1-246): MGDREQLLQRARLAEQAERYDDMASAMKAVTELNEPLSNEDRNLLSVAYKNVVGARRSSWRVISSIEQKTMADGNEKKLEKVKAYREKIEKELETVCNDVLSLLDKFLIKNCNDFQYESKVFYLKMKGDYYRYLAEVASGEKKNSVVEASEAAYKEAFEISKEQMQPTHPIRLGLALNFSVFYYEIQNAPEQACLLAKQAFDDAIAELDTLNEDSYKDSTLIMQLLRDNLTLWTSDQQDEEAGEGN
Experimental: as §3, §2, §4

`CC(C)C[C@H](N)C(=O)N[C@@H](CO)C(=O)N[C@@H](CCC(N)=O)C(=O)N[C@@H](CCCNC(=N)N)C(=O)N[C@@H](CCC(N)=O)C(=O)N[C@@H](CCCNC(=N)N)C(=O)N[C@@H](CO)C(=O)N[C@H](C(=O)N[C@@H](COP(=O)(O)O)C(=O)N[C@H](C(=O)N1CCC[C@H]1C(=O)N[C@@H](CC(N)=O)C(=O)N[C@H](C(=O)N[C@@H](Cc1c[nH]cn1)C(=O)N[C@@H](C)C(=O)O)C(C)C)[C@@H](C)O)[C@@H](C)O` [pS-Raf-259] (H-LSQRQRST[pS]TPNVHA-OH) gave a pKd (14-3-3 beta [1]) of 6.84, a koff (14-3-3 beta [1]) of 0.0032 s⁻¹ and a kon (14-3-3 beta [1]) of 22000 M⁻¹ s⁻¹. The pIC50 (14-3-3 beta [2]) was 5.22, the pIC50 (14-3-3 zeta [3]) was 5.22 and ~5.22 and the pKd (14-3-3 zeta [4]; read-out: KD) was 6.91. For the same molecule, the koff (14-3-3 zeta [4]; read-out: koff) was 0.0028 s⁻¹, the kon (14-3-3 zeta [4]; read-out: kon) was 23000 M⁻¹ s⁻¹ and the pKd (14-3-3 tau) was 6.84. The koff (14-3-3 tau) was 0.0036 s⁻¹, the kon (14-3-3 tau) was 25000 M⁻¹ s⁻¹ and the pIC50 (14-3-3 eta) was 5.30.
